# Experimental data published in patent publication US4257941A, “Polycyclic nitrogen-containing compounds” (BASF Aktiengesellschaft, priority 1976, dated 1981).
# How the values were obtained:
# Assay type in all cases: in vivo
# sunflowers [1] = experiment: Action on sunflowers (Example 24); conditions: for Plant height relative: control 100
# From the text: The active ingredients were applied both to the soil and to the leaves.
# field beans = experiment: Action on field beans, hydroponic (Example 17b); conditions: for Root dry substance rel. / Root length rel. / Shoot dry substance rel. / Shoot length rel.: control 100
# Experimental: (§1) Young soybean plants grown in quartz sand were transferred to hydroponic treatment in 4 liter vessels and provided with a sufficient supply of nutrient solution and trace elements. The active ingredients were added (0.25 mg/vessel=0.06 ppm; 1.0 mg/vessel=0.25 ppm; 2.5 mg/vessel=0.63 ppm) at a plant height of approx. 22 cm. The plants were in continuous contact with the active ingredients. […] The roots were also shorter, but the plants had more and stronger shoots.
# (§2) The action on soybeans, field beans and sunflowers was examined under the same conditions as in Example 16. The shoots and roots of all 3 crop plants were considerably shortened. Whereas in the shoots the dry substance was reduced commensurately with the shortening, the dry substance in the roots rose (particularly in soybeans) as the concentration increased.
# cotton = experiment: Induction of flowering and growth height of cotton, hydroponic (Example 18); conditions: for Shoot length: 4 weeks; for No. of squares per vessel (3 plants): control 0, average of 3 vessels; for Shoot length rel.: control 100
# Experimental: Cotton plants were subjected to hydroponic treatment under the same conditions as in Example 16. The active ingredients were added (1.25 mg/vessel=0.3 ppm and 5 mg/vessel=1.25 ppm) at a height of the plant of 15 to 18 cm. […] The results below are averages from 3 vessels, each of 3 plants.
# rice = experiment: Action on rice (Example 23); conditions: leaf; for Plant height: 66 days; for Plant height relative: control 100
# Experimental: At a growth height of 11 to 13 cm the active ingredients were sprayed onto the leaves in the usual manner. The plants were measured after 66 days.
# soybeans [2] = experiment: Action on soybeans, hydroponic (Example 17a); conditions: for Root dry substance rel. / Root length rel. / Shoot dry substance rel. / Shoot length rel.: control 100
# Experimental: as §1, §2
# sunflowers [3] = experiment: Action on sunflowers, hydroponic (Example 17c); conditions: for Root dry substance rel. / Root length rel. / Shoot dry substance rel. / Shoot length rel.: control 100
# Experimental: as §1, §2
# soybeans [4] = experiment: Growth of roots and shoots of soybeans, hydroponic (Example 16); conditions: for Root dry substance rel. / Root length rel. / Shoot dry substance rel. / Shoot length rel.: control 100
# Experimental: as §1
# spring barley = experiment: Stem length, lateral shoots and yield in spring barley (Example 12); conditions: for Ear weight relative / No. of lateral shoots relative / Stem length relative: control 100
# Experimental: To examine the effect of the various substances on spring barley up to the maturity stage of the plants, an experiment was carried out in large pots. The plants were grown in quartz sand (fertilized with 2 g N as ammonium nitrate in 3 doses, 1 g P2 O5 as secondary sodium phosphate, 1.5 g K2 O as potassium sulfate, 0.5 g MgO as magnesium sulfate, 10 ml of a solution of trace elements, and 10 mg of iron as an iron complex). […] The treated plants were up to 10% shorter than the control, and yields were also slightly up.
compound,measurement,setting,value
Clc1ccc(N2N=NC3C4CC(C5N=NC45)C32)cc1 (stereo not drawn) [drawing 408],Plant height relative,"sunflowers [1]; leaf, 1.5 kg/ha",78
same,Plant height,"sunflowers [1]; leaf, 6.0 kg/ha",25.5 cm
same,Plant height relative,"sunflowers [1]; leaf, 6.0 kg/ha",67
Clc1ccc(N2N=NC3C4CC(C5N=NC45)C32)cc1 (stereo not drawn) [drawing 406],Plant height,"sunflowers [1]; soil, 3.0 kg/ha",26.5 cm
same,Plant height relative,"sunflowers [1]; soil, 3.0 kg/ha",73
same,Plant height,"sunflowers [1]; soil, 12.0 kg/ha",15.5 cm
same,Plant height relative,"sunflowers [1]; soil, 12.0 kg/ha",43
Brc1ccc(N2N=NC3C4CC(C5N=NC45)C32)cc1 (stereo not drawn) [drawing 389],Root dry substance,field beans; 0.06 ppm,3.8 g
same,Root length,field beans; 0.06 ppm,28.3 cm
same,Shoot dry substance,field beans; 0.06 ppm,14.5 g
same,Shoot length,field beans; 0.06 ppm,69.7 cm
same,Root dry substance rel.,field beans; 0.06 ppm,63.3
same,Root length rel.,field beans; 0.06 ppm,68.5
same,Shoot dry substance rel.,field beans; 0.06 ppm,85.8
same,Shoot length rel.,field beans; 0.06 ppm,95.5
same,Root dry substance,field beans; 0.25 ppm,5.3 g
same,Root length,field beans; 0.25 ppm,28.3 cm
same,Shoot dry substance,field beans; 0.25 ppm,14.5 g
same,Shoot length,field beans; 0.25 ppm,67.3 cm
same,Root dry substance rel.,field beans; 0.25 ppm,85.5
same,Root length rel.,field beans; 0.25 ppm,68.5
same,Shoot dry substance rel.,field beans; 0.25 ppm,85.8
same,Shoot length rel.,field beans; 0.25 ppm,92.2
same,Root dry substance,field beans; 0.63 ppm,6.0 g
same,Root length,field beans; 0.63 ppm,25.0 cm
same,Shoot dry substance,field beans; 0.63 ppm,13.0 g
same,Shoot length,field beans; 0.63 ppm,56.7 cm
same,Root dry substance rel.,field beans; 0.63 ppm,96.8
same,Root length rel.,field beans; 0.63 ppm,60.5
same,Shoot dry substance rel.,field beans; 0.63 ppm,76.9
same,Shoot length rel.,field beans; 0.63 ppm,77.7
Brc1ccc(N2N=NC3C4CC(C5N=NC45)C32)cc1 (stereo not drawn) [drawing 392],Shoot length,cotton; 0.3 ppm,41.9 cm
same,No. of squares per vessel (3 plants),cotton; 0.3 ppm,2.6
same,Shoot length rel.,cotton; 0.3 ppm,88.8
same,Shoot length,cotton; 1.25 ppm,30.9 cm
same,No. of squares per vessel (3 plants),cotton; 1.25 ppm,8.3
same,Shoot length rel.,cotton; 1.25 ppm,65.5
Brc1ccc(N2N=NC3C4CC(C5N=NC45)C32)cc1 (stereo not drawn) [drawing 409],Plant height,"sunflowers [1]; leaf, 1.5 kg/ha",33.0 cm
same,Plant height relative,"sunflowers [1]; leaf, 1.5 kg/ha",86
same,Plant height,"sunflowers [1]; leaf, 6.0 kg/ha",30.0 cm
same,Plant height relative,"sunflowers [1]; leaf, 6.0 kg/ha",78
Brc1ccc(N2N=NC3C4CC(C5N=NC45)C32)cc1 (stereo not drawn) [drawing 407],Plant height relative,"sunflowers [1]; soil, 3.0 kg/ha",84
same,Plant height,"sunflowers [1]; soil, 12.0 kg/ha",22.5 cm
same,Plant height relative,"sunflowers [1]; soil, 12.0 kg/ha",62
Brc1ccc(N2N=NC3C4CC(C5N=NC45)C32)cc1 (stereo not drawn) [drawing 405],Plant height,rice; 1.0 kg/ha,37.0 cm
same,Plant height relative,rice; 1.0 kg/ha,91.1
same,Plant height,rice; 2.0 kg/ha,37.0 cm
same,Plant height relative,rice; 2.0 kg/ha,91.1
same,Plant height,rice; 4.0 kg/ha,34.5 cm
same,Plant height relative,rice; 4.0 kg/ha,85.0
same,Plant height,rice; 6.0 kg/ha,33.5 cm
same,Plant height relative,rice; 6.0 kg/ha,82.5
Brc1ccc(N2N=NC3C4CC(C5N=NC45)C32)cc1 (stereo not drawn) [drawing 388],Root dry substance,soybeans [2]; 0.06 ppm,1.5 g
same,Root length,soybeans [2]; 0.06 ppm,21.7 cm
same,Shoot dry substance,soybeans [2]; 0.06 ppm,5.4 g
same,Shoot length,soybeans [2]; 0.06 ppm,33.0 cm
same,Root dry substance rel.,soybeans [2]; 0.06 ppm,136.4
same,Root length rel.,soybeans [2]; 0.06 ppm,75.6
same,Shoot dry substance rel.,soybeans [2]; 0.06 ppm,93.1
same,Shoot length rel.,soybeans [2]; 0.06 ppm,89.9
same,Root dry substance,soybeans [2]; 0.25 ppm,1.5 g
same,Root length,soybeans [2]; 0.25 ppm,20.0 cm
same,Shoot dry substance,soybeans [2]; 0.25 ppm,4.9 g
same,Shoot length,soybeans [2]; 0.25 ppm,21.7 cm
same,Root dry substance rel.,soybeans [2]; 0.25 ppm,136.4
same,Root length rel.,soybeans [2]; 0.25 ppm,69.7
same,Shoot dry substance rel.,soybeans [2]; 0.25 ppm,84.5
same,Shoot length rel.,soybeans [2]; 0.25 ppm,59.1
same,Root dry substance,soybeans [2]; 0.63 ppm,2.1 g
same,Root length,soybeans [2]; 0.63 ppm,20.0 cm
same,Shoot dry substance,soybeans [2]; 0.63 ppm,3.9 g
same,Shoot length,soybeans [2]; 0.63 ppm,19.0 cm
same,Root dry substance rel.,soybeans [2]; 0.63 ppm,190.9
same,Root length rel.,soybeans [2]; 0.63 ppm,69.7
same,Shoot dry substance rel.,soybeans [2]; 0.63 ppm,67.2
same,Shoot length rel.,soybeans [2]; 0.63 ppm,51.8
Brc1ccc(N2N=NC3C4CC(C5N=NC45)C32)cc1 (stereo not drawn) [drawing 390],Root dry substance,sunflowers [3]; 0.06 ppm,1.5 g
same,Root length,sunflowers [3]; 0.06 ppm,18.7 cm
same,Shoot dry substance,sunflowers [3]; 0.06 ppm,6.3 g
same,Shoot length,sunflowers [3]; 0.06 ppm,35.0 cm
same,Root dry substance rel.,sunflowers [3]; 0.06 ppm,100
same,Root length rel.,sunflowers [3]; 0.06 ppm,93.5
same,Shoot dry substance rel.,sunflowers [3]; 0.06 ppm,98.4
same,Shoot length rel.,sunflowers [3]; 0.06 ppm,84.7
same,Root dry substance,sunflowers [3]; 0.25 ppm,1.4 g
same,Root length,sunflowers [3]; 0.25 ppm,16.7 cm
same,Shoot dry substance,sunflowers [3]; 0.25 ppm,5.3 g
same,Shoot length,sunflowers [3]; 0.25 ppm,27.3 cm
same,Root dry substance rel.,sunflowers [3]; 0.25 ppm,93.3
same,Root length rel.,sunflowers [3]; 0.25 ppm,83.5
same,Shoot dry substance rel.,sunflowers [3]; 0.25 ppm,82.8
same,Shoot length rel.,sunflowers [3]; 0.25 ppm,66.1
same,Root dry substance,sunflowers [3]; 0.63 ppm,1.6 g
same,Root length,sunflowers [3]; 0.63 ppm,12.7 cm
same,Shoot dry substance,sunflowers [3]; 0.63 ppm,5.2 g
same,Shoot length,sunflowers [3]; 0.63 ppm,27.3 cm
same,Root dry substance rel.,sunflowers [3]; 0.63 ppm,106.7
same,Root length rel.,sunflowers [3]; 0.63 ppm,63.5
same,Shoot dry substance rel.,sunflowers [3]; 0.63 ppm,81.3
same,Shoot length rel.,sunflowers [3]; 0.63 ppm,66.1
Clc1ccc(N2N=NC3C4CC(C5N=NC45)C32)cc1 (stereo not drawn) [drawing 387],Root dry substance,soybeans [4]; 0.06 ppm,13.5 g
same,Root length,soybeans [4]; 0.06 ppm,28.3 cm
same,Shoot dry substance,soybeans [4]; 0.06 ppm,39.0 g
same,Shoot length,soybeans [4]; 0.06 ppm,70.7 cm
same,Root dry substance rel.,soybeans [4]; 0.06 ppm,97.1
same,Root length rel.,soybeans [4]; 0.06 ppm,93.4
same,Shoot dry substance rel.,soybeans [4]; 0.06 ppm,94.9
same,Shoot length rel.,soybeans [4]; 0.06 ppm,95.4
same,Root dry substance,soybeans [4]; 0.25 ppm,13.2 g
same,Root length,soybeans [4]; 0.25 ppm,24.7 cm
same,Shoot dry substance,soybeans [4]; 0.25 ppm,31.5 g
same,Shoot length,soybeans [4]; 0.25 ppm,62.3 cm
same,Root dry substance rel.,soybeans [4]; 0.25 ppm,95.0
same,Root length rel.,soybeans [4]; 0.25 ppm,81.5
same,Shoot dry substance rel.,soybeans [4]; 0.25 ppm,76.6
same,Shoot length rel.,soybeans [4]; 0.25 ppm,84.1
same,Root dry substance,soybeans [4]; 0.63 ppm,15.0 g
same,Root length,soybeans [4]; 0.63 ppm,24.7 cm
same,Shoot dry substance,soybeans [4]; 0.63 ppm,26.6 g
same,Shoot length,soybeans [4]; 0.63 ppm,51.7 cm
same,Root dry substance rel.,soybeans [4]; 0.63 ppm,107.9
same,Root length rel.,soybeans [4]; 0.63 ppm,81.5
same,Shoot dry substance rel.,soybeans [4]; 0.63 ppm,64.7
same,Shoot length rel.,soybeans [4]; 0.63 ppm,69.8
Clc1ccc(N2N=NC3C4CC(C5N=NC45)C32)cc1 (stereo not drawn) [drawing 391],Shoot length,cotton; 0.3 ppm,40.2 cm
same,No. of squares per vessel (3 plants),cotton; 0.3 ppm,4.0
same,Shoot length rel.,cotton; 0.3 ppm,85.2
same,Shoot length,cotton; 1.25 ppm,27.8 cm
same,No. of squares per vessel (3 plants),cotton; 1.25 ppm,8.7
same,Shoot length rel.,cotton; 1.25 ppm,58.9
Clc1ccc(N2N=NC3C4CC(C5N=NC45)C32)cc1 (stereo not drawn) [drawing 404],Plant height,rice; 1.0 kg/ha,35.0 cm
same,Plant height relative,rice; 1.0 kg/ha,86.2
same,Plant height,rice; 2.0 kg/ha,33.0 cm
same,Plant height relative,rice; 2.0 kg/ha,81.3
same,Plant height,rice; 4.0 kg/ha,29.5 cm
same,Plant height relative,rice; 4.0 kg/ha,72.7
same,Plant height,rice; 6.0 kg/ha,28.5 cm
same,Plant height relative,rice; 6.0 kg/ha,70.2
Clc1ccc(N2N=NC3C4CC(C5N=NC45)C32)cc1 (stereo not drawn) [drawing 377],Ear weight,spring barley; 0.5 kg/ha,91.5 g
same,No. of lateral shoots,spring barley; 0.5 kg/ha,105
same,Stem length,spring barley; 0.5 kg/ha,74.1 cm
same,Ear weight relative,spring barley; 0.5 kg/ha,101.2
same,No. of lateral shoots relative,spring barley; 0.5 kg/ha,112.9
same,Stem length relative,spring barley; 0.5 kg/ha,96.4
same,Ear weight,spring barley; 1.5 kg/ha,94.8 g
same,No. of lateral shoots,spring barley; 1.5 kg/ha,111
same,Stem length,spring barley; 1.5 kg/ha,69.7 cm
same,Ear weight relative,spring barley; 1.5 kg/ha,104.9
same,No. of lateral shoots relative,spring barley; 1.5 kg/ha,119.4
same,Stem length relative,spring barley; 1.5 kg/ha,90.6
